Data on six compounds can be found in PMC5778891 (Nature, 2017).

One data set concerns the target T1, K2P4.1(TRAAK) Q258K (Homo sapiens, UniProt Q9NYG8, Q232K).
T1 sequence (Q9NYG8 1-419 isoform Q9NYG8-2 Q258K): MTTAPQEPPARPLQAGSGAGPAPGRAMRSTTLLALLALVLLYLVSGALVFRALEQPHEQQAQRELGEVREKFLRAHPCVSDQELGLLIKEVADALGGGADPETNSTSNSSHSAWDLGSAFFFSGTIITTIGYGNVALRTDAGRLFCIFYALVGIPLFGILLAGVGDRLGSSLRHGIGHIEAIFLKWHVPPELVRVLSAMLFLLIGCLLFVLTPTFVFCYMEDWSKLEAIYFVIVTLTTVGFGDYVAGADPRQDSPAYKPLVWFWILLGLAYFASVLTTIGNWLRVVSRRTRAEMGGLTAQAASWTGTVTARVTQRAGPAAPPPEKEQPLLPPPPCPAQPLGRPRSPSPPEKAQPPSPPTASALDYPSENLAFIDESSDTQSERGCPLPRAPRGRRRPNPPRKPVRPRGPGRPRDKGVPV
In words: Two electrode voltage clamp in Xenopus oocytes, K2P4.1. Type of data set: cell-based. As to conditions: for effect of activator (current potentiation at 0 mV) compared with wild type: Xenopus oocytes, K2P4.1(TRAAK) Q258K, 10 μM BL-1249, 30 μM ML67-33.

Data set [1] concerns the target T2, K2P2.1(TREK-1) K271Q (Mus musculus, UniProt P97438, K286Q).
T2 sequence (P97438 1-411 isoform P97438-2 K271Q): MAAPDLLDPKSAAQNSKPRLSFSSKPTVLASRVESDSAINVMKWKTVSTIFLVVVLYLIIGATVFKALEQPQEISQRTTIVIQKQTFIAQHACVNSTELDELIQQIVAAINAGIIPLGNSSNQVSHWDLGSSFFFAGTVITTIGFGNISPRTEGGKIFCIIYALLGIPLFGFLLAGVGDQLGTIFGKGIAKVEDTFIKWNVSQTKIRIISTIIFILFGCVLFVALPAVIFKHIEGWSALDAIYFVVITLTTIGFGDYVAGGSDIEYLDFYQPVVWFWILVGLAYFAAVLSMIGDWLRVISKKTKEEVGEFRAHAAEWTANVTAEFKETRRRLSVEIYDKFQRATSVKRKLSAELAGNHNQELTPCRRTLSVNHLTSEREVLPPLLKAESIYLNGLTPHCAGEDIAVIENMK
In words: Two electrode voltage clamp in Xenopus oocytes, K2P2.1. Type of data set: cell-based. As to conditions: for effect of activator (current potentiation at 0 mV) compared with wild type: 10 μM BL-1249, 30 μM ML67-33.

For a further data set, the target named is T3, K2P10.1(TREK-2) (Homo sapiens, UniProt P57789).
T3 sequence (P57789 1-543 isoform P57789-3): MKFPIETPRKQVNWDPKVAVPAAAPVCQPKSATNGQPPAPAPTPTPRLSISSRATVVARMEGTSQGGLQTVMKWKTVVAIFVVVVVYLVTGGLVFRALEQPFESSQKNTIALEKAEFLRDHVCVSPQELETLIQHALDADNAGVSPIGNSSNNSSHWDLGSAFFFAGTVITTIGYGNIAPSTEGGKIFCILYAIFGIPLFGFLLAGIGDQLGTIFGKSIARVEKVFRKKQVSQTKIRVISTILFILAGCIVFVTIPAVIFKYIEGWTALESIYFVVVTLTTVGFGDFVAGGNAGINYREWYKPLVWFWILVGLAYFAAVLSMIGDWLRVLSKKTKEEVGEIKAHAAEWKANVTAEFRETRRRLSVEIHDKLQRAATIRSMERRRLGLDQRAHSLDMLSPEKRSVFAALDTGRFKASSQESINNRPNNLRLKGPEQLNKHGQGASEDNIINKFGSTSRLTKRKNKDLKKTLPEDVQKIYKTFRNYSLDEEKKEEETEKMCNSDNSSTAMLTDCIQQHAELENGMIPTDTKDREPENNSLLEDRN
The data set can be described thus: Two electrode voltage clamp in Xenopus oocytes, K2P10.1. Type of data set: cell-based.

For a further data set, the target named is K2P2.1(TREK-1)cryst (Mus musculus, UniProt P97438, A104R/A107P/E321A/I103L/K99R/N110S/N134A/Q100E/Q105A/S111D/S315A/T101K/T112Q). In words: cell-based.
Data set [2] addresses T4, K2P2.1(TREK-1) (Mus musculus, UniProt P97438).
T4 sequence (P97438 1-411 isoform P97438-2): T2 sequence (P97438 1-411 isoform P97438-2 K271Q) with Q271K
The data set can be described thus: Two electrode voltage clamp in Xenopus oocytes, K2P2.1. Type of data set: cell-based.

The target of data set [3] is T4, K2P2.1(TREK-1). The data set can be described thus: cell-based.
Data set [4] concerns the target T4, K2P2.1(TREK-1). The data set can be described thus: HEK293 inside-out patches, 150 mM K+[out]/150 mM Rb+[in], rectification. As to conditions: 5 μM compound. Type of data set: cell-based.
For another data set, the target named is T5, K2P4.1(TRAAK) (Homo sapiens, UniProt Q9NYG8).
T5 sequence (Q9NYG8 1-419 isoform Q9NYG8-2): T1 sequence (Q9NYG8 1-419 isoform Q9NYG8-2 Q258K) with K258Q
In words: Two electrode voltage clamp in Xenopus oocytes, K2P4.1. Type of data set: cell-based.

The nature of data set [5]: Solubility in aqueous solutions. Type of data set: physicochemical.
The target in data set [6] is T2, K2P2.1(TREK-1) K271Q. The data set can be described thus: HEK cell patch clamp response to arachidonic acid, K2P2.1. Type of data set: cell-based. As to conditions: HEK cells, 10 μM AA.

Molecules are shown by their SMILES. Changes are numbered by the printed parent chain.

Chain of K2P2.1(TREK-1)cryst (P97438 36-337 K99R/Q100E/T101K/I103L/A104R/Q105A/A107P/N110S/S111D/T112Q/N134A/S315A/E321A): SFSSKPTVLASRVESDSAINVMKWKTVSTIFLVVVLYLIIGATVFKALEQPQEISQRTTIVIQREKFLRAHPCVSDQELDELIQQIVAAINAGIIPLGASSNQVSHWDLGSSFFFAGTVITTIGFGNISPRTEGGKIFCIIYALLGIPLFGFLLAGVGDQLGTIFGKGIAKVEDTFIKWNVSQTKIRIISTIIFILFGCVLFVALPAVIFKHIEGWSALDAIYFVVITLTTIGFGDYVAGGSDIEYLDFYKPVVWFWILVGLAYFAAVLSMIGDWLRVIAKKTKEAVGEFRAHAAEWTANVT

Turning to `c1ccc(-c2nnn[nH]2)c(Nc2cccc3c2CCCC3)c1` [BL-1249, (5,6,7,8-tetrahydro-naphthalen-1-yl)-[2-(1H-tetrazol-5-yl)-phenyl]-amine, reference compound], the “effect of activator (current potentiation at 0 mV) compared with wild type” value (“effect of activator … compared with wild type” below) on K2P4.1(TRAAK) Q258K and on K2P2.1(TREK-1) K271Q [1] was “unchanged” each time.

In the case of `CC1(C)c2cc(Cl)ccc2N(CCc2nn[nH]n2)c2ccc(Cl)cc21` [ML67-33, reference compound], the “effect of activator … compared with wild type” value at K2P4.1(TRAAK) Q258K and at K2P2.1(TREK-1) K271Q [1] was “unchanged” in each case.

With `CS(=O)(=O)Nc1ccc(C(=O)NCc2ccc(Cl)cc2Cl)cc1` [ML335, N-[(2,4-dichlorophenyl)methyl]-4-methanesulfonamidobenzamide], the EC50 at K2P10.1(TREK-2) worked out at 5.2 ± 0.5 µM; at K2P2.1(TREK-1)cryst, 10.5 ± 2.7 µM; on K2P2.1(TREK-1) [2], 14.3 ± 2.7 µM; on K2P2.1(TREK-1) [3] it was 5.2 ± 0.8 µM; at K2P4.1(TRAAK) Q258K, 16.2 ± 3 µM. In addition, the “rectification coefficient (I+100mV/I-100mV)” value at K2P2.1(TREK-1) [4] is ~ 1. In addition, the sensitivity to activator entry at K2P2.1(TREK-1) K271Q [1] is given as “insensitive”. In addition, the activation of channel entry on K2P4.1(TRAAK) is “not”. The “solubility in aqueous solutions” value in [5] was “insoluble”.

As for `C=CS(=O)(=O)N[C@H]1CC[C@H](C(=O)NCc2ccc(Cl)cc2Cl)CC1` [ML335a, trans-N-[(2,4-dichlorophenyl)methyl]-4-ethenesulfonamidocyclohexane-1-carboxamide], the effect on channel entry on K2P2.1(TREK-1) [2] (Xenopus oocytes, dose response, K2P2.1(TREK-1)) is “no effect”.

On to `Cc1cc(Cl)ccc1OCCNC(=O)c1cccs1` [ML402, N-[2-(4-chloro-2-methylphenoxy)ethyl]thiophene-2-carboxamide], for which the EC50 at K2P10.1(TREK-2) amounted to 5.9 ± 1.6 µM; on K2P2.1(TREK-1)cryst, 14.9 ± 1.6 µM; at K2P2.1(TREK-1) [2] it was 13.7 ± 7 µM; on K2P2.1(TREK-1) [3] it was 5.9 ± 1.6 µM; on K2P4.1(TRAAK) Q258K, 13.6 ± 1.5 µM. For the same compound, the “rectification coefficient (I+100mV/I-100mV)” value at K2P2.1(TREK-1) [4] is ~ 1. In addition, the sensitivity to activator entry on K2P2.1(TREK-1) K271Q [1] is given as “insensitive”. In addition, on K2P4.1(TRAAK), the activation of channel result is “not”. The “solubility in aqueous solutions” value in [5] was “insoluble”.

On to `CCCCC/C=C\C/C=C\C/C=C\C/C=C\CCCC(=O)O` [arachidonic acid], for which the “effect of activator … compared with wild type” value at K2P2.1(TREK-1) K271Q [6] is “unchanged”.
